Tests used:
[1] = molecular target: T1, endothelin receptor A (EDNRA) (Homo sapiens, UniProt P25101); test: Suppression of endothelin-induced Ca2+ elevation in EDNRA/293 cells; format: cell-based; details: 0.03, 0.1 or 0.3 nM endothelin, FIG. 2 and FIG. 3
T1 construct: The protein coding region of human derived EDNRA (gene number NM_001957.2) was transduced; expressed in transfected cells
T1 sequence (P25101 21-427): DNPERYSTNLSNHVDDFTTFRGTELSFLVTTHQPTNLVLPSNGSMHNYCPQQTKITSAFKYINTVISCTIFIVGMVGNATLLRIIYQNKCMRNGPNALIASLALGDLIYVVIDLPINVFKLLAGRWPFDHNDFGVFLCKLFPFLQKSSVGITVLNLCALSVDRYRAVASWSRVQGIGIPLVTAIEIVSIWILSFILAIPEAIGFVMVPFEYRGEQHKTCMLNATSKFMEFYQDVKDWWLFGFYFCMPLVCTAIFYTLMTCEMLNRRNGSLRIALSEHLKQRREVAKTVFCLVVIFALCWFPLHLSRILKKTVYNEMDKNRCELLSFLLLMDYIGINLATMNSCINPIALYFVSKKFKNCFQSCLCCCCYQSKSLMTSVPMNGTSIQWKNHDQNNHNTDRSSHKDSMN
Source text: The protein coding region of human derived EDNRA (gene number NM_001957.2) was transduced into HEK-293 (Human Embryonic Kidney, ATCC No. CRL-1573) cells with a murine leukemia retrovirus vector, to prepare a cell line stably expressing EDNRA (EDNRA/293 cells). DMEM (Dulbecco's Modified Eagle Medium) supplemented with 10% fetal bovine serum and penicillin and streptomycin was used as the culture medium.
One day before measurement, the EDNRA/293 cells were inoculated on a 384-well plate at 5000 cells/well. On the day of measurement, a fluorescent reagent for calcium measurement (Calcium4, Molecular Device) dissolved in Hanks balanced buffer solution was added to each well, and allowed standing for about 1 hour.
Endothelin, an EDNRA ligand (activator) was applied to the wells not treated with the specimens, and the resulting activation (calcium elevation) reaction was detected by a measuring instrument (FDSS7000, Hamamatsu Photonics) to obtain a dose-dependent activation reaction as shown in FIG. 1. At doses of 1 nM or more, the activation reaction became almost saturated. For this reason, the doses of endothelin used for detection in the suppression reactions below were set at 0.03, 0.1 or 0.3 nM.

CYP1A2 [2] = molecular target: T2, CYP1A2 (Homo sapiens, UniProt P05177); test: Competitive CYP inhibition (Method 2), human hepatic microsome; format: in vitro ADME; details: phenacetin 10 μM, n = 2, read-out: IC50 score, CYP1A2
T2 construct: human hepatic microsomal fraction containing CYP; from tissue; host or cells: human liver microsomes
T2 sequence (P05177 1-516): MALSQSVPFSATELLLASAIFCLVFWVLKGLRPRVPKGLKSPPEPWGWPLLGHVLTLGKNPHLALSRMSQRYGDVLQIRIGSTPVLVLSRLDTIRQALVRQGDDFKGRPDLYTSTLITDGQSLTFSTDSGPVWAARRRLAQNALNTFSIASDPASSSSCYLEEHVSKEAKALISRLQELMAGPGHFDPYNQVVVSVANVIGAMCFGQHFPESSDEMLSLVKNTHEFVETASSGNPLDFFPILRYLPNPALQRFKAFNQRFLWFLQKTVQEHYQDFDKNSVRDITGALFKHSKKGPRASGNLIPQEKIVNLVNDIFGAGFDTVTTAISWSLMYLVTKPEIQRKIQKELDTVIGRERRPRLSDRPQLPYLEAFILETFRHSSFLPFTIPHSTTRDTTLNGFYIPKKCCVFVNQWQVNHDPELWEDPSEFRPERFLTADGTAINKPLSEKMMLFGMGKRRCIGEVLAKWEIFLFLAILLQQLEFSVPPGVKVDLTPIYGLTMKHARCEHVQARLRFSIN
Method: (§1) The test substance was added at a final concentration of 1 or 10 μM to an enzyme solution (containing human hepatic microsome (0.2 mg/mL), 100 mM Kpi and 0.1 mM EDTA) containing a model substrate solution, and incubated for 10 minutes at 37° C. in the presence of an NADPH generating system. An equal amount of a mixed solution of acetonitrile and methanol (1:1, containing 0.05 μM dextrophan or 0.05 μM propranolol as an internal standard) was added to terminate the reaction, and metabolites of the model substrate in the reaction solution were measured by LC-MS/MS. A similar test was performed without addition of the test substance as a control test. The inhibition rate was determined from the amounts of model substrate metabolites with and without addition of the test substance at each test substance concentration, and the IC50 value was calculated from the inhibition rate (calculation method in accordance with Xenobiotica, 1999, 29(1), 53-75). […] [table]

CYP2C19 [3] = molecular target: T3, CYP2C19 (Homo sapiens, UniProt P33261); test: as above; format: in vitro ADME; details: S-mephenytoin 40 μM, n = 2, read-out: IC50 score, CYP2C19
T3 construct: human hepatic microsomal fraction containing CYP; from tissue; host or cells: human liver microsomes
T3 sequence (P33261 whole entry): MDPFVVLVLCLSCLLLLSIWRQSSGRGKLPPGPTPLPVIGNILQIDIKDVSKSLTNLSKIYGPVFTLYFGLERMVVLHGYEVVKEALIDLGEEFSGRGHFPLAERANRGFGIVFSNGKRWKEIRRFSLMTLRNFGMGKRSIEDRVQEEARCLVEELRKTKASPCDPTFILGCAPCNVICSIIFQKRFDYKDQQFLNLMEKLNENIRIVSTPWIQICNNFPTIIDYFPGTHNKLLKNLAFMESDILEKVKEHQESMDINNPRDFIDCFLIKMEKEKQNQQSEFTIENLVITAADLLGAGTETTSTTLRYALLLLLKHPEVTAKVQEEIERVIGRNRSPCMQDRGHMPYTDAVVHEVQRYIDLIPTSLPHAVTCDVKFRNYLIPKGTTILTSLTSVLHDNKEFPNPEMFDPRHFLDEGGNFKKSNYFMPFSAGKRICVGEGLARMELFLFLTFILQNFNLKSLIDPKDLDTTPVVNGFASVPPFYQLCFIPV
Method: as §1

CYP2C9 [4] = molecular target: T4, CYP2C9 (Homo sapiens, UniProt P11712); test: as above; format: in vitro ADME; details: human liver microsomes, probe tolbutamide 100 μM, n = 2, read-out: IC50 score, CYP2C9
T4 construct: human hepatic microsomal fraction containing CYP; from tissue; host or cells: human liver microsomes
T4 sequence (P11712 whole entry): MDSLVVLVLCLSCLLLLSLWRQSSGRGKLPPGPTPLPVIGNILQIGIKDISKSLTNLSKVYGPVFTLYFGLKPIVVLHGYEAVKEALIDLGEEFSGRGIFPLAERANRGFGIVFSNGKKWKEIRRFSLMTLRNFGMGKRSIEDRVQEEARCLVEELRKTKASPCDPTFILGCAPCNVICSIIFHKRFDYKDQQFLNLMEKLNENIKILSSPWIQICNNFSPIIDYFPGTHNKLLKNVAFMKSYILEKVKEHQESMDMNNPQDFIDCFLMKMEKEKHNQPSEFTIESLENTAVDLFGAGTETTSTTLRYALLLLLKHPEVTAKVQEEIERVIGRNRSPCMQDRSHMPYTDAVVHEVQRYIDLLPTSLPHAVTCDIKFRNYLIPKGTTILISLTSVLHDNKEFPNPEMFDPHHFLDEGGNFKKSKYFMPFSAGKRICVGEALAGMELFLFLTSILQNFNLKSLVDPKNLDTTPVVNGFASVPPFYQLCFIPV
Method: as §1

CYP2D6 [5] = molecular target: T5, CYP2D6 (Homo sapiens, UniProt P10635); test: as above; format: in vitro ADME; details: bufuralol 10 μM, n = 2, read-out: IC50 score, CYP2D6
T5 construct: human hepatic microsomal fraction containing CYP; from tissue; host or cells: human liver microsomes
T5 sequence (P10635 whole entry): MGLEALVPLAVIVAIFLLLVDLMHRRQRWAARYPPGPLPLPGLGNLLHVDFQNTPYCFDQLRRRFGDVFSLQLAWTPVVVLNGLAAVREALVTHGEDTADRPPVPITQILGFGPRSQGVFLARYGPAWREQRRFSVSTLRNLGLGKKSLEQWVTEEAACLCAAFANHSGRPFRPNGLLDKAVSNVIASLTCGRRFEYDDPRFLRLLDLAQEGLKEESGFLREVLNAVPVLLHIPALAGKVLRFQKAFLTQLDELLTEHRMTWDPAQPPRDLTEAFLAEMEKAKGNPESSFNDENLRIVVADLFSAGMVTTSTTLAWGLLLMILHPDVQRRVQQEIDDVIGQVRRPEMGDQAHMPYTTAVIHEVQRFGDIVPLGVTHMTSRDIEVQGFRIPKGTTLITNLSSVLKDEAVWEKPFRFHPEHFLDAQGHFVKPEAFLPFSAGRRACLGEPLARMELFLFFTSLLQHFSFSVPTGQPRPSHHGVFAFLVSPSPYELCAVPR
Method: as §1

CYP1A2 [6] = molecular target: T2, CYP1A2; test: Time-dependent CYP inhibition (Method 1), human hepatic microsome; format: in vitro ADME; details: 30 min pre-incubation at 37° C., phenacetin, average, n = 2
Method: (§2) Competitive inhibition of CYP was also tested as Method 2. […] The test substance was added to an enzyme solution (containing human hepatic microsome (0.2 mg/mL), 100 mM Kpi and 0.1 mM EDTA), and pre-incubated for 30 minutes at 37° C. in the presence of or absence of the coenzyme. The final concentration of the test substance was set at 0.1, 0.2, 0.4, 0.5, 1, 2, 10 or 50 μM. A NADPH generating system (60 mM MgCl2 solution containing 3.6 mM β-NADP^+, 90 mM glucose-6-phosphate and 1 Unit/mL glucose-6-phosphate dehydrogenase, incubated for 5 minutes to generate NADPH) was used as the coenzyme. After pre-incubation, part of the reaction solution was collected, diluted 10 times by mixing with a model substrate solution and the NADPH generating system, and then incubated for 10 minutes at 37° C. An equal amount of a mixed solution of acetonitrile and methanol (1:1, containing 0.05 μM dextrophan or 0.05 μM propranolol as an internal standard) was added to terminate the reaction, and metabolites of the model substrate in the reaction solution were measured by LC-MS/MS. A similar test was also performed with no test substance added as a control test. The ratio relative to the amount of model substrate metabolites in the control test was given as residual activity. The ratio of residual activity in the presence of NADPH relative to residual activity in the absence of NADPH was evaluated, and the ratio of 80% or less was defined “+”, while the ratio of above 80% was defined as “−”. [table]

CYP2C9 [7] = molecular target: T4, CYP2C9; test: as above; format: in vitro ADME; details: 30 min pre-incubation at 37° C., tolbutamide, average, n = 2
Method: as §2

CYP2D6 [8] = molecular target: T5, CYP2D6; test: as above; format: in vitro ADME; details: 30 min pre-incubation at 37° C., bufuralol, average, n = 2
Method: as §2

CYP3A4 [9] = molecular target: T6, CYP3A4 (Homo sapiens, UniProt P08684); test: as above; format: in vitro ADME; details: 30 min pre-incubation at 37° C., midazolam, average, n = 2
T6 construct: human hepatic microsomal fraction containing CYP; from tissue; host or cells: human liver microsomes
T6 sequence (P08684 whole entry): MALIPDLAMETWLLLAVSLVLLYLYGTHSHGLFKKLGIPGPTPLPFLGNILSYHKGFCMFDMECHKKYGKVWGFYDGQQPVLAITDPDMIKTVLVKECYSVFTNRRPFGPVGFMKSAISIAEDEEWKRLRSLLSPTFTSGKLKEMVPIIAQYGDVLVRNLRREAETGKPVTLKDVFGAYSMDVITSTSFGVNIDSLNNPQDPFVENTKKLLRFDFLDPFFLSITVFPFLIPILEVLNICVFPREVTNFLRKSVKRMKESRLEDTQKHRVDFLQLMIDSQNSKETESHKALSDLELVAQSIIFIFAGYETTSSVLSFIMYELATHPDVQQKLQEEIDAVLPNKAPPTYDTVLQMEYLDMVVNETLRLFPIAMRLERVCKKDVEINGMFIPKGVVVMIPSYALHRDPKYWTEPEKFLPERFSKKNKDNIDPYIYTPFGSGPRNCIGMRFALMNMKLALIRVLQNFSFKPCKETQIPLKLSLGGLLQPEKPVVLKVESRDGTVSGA
Method: as §2

CYP2C19 [10] = molecular target: T3, CYP2C19; test: as above; format: in vitro ADME; details: 30 min pre-incubation at 37° C., S-mephenytoin, average, n = 2
CYP3A4 [11] = molecular target: T6, CYP3A4; test: Competitive CYP inhibition (Method 2), human hepatic microsome; format: in vitro ADME; details: midazolam 3 μM, n = 2, read-out: IC50 score, CYP3A4
Method: The inhibition rate was determined from the amounts of model substrate metabolites with and without addition of the test substance at each test substance concentration, and the IC50 value was calculated from the inhibition rate (calculation method in accordance with Xenobiotica, 1999, 29(1), 53-75).

Structure (SMILES)	Suppression of activation (calcium elevation) reaction by endothelin [1]	IC50 (CYP1A2 [2])	IC50 (CYP2C19 [3])	IC50 at 10 min (CYP2C9 [4])	IC50 (CYP2D6 [5])	Ratio of residual CYP1A2 activity in presence of NADPH relative to absence of NADPH (CYP1A2 [6]; test substance 10 μM)	Ratio of residual CYP1A2 activity in presence of NADPH relative to absence of NADPH (CYP1A2 [6]; test substance 50 μM)	Ratio of residual CYP2C9 activity in presence of NADPH relative to absence of NADPH (CYP2C9 [7]; test substance 10 μM)	Ratio of residual CYP2C9 activity in presence of NADPH relative to absence of NADPH (CYP2C9 [7]; test substance 50 μM)	Ratio of residual CYP2D6 activity in presence of NADPH relative to absence of NADPH (CYP2D6 [8]; test substance 10 μM)	Ratio of residual CYP2D6 activity in presence of NADPH relative to absence of NADPH (CYP2D6 [8]; test substance 50 μM)	Ratio of residual CYP3A4 activity in presence of NADPH relative to absence of NADPH (CYP3A4 [9]; test substance 10 μM)	Ratio of residual CYP3A4 activity in presence of NADPH relative to absence of NADPH (CYP3A4 [9]; test substance 50 μM)	Ratio of residual CYP2C19 activity in presence of NADPH relative to absence of NADPH (CYP2C19 [10]; test substance 10 μM)	Ratio of residual CYP2C19 activity in presence of NADPH relative to absence of NADPH (CYP2C19 [10]; test substance 50 μM)	IC50 (CYP3A4 [11])
Cc1cc2c(cc1CC(=O)c1sccc1S(=O)(=O)Nc1onc(C)c1Cl)OCO2 [Sitaxentan, N-(4-chloro-3-methyl-1,2-oxazol-5-yl)-2-[2-(6-methyl-2H-1,3-benzodioxol-5-yl)acetyl]thiophene-3-sulfonamide, reference compound]	suppressed the activation reaction	> 10 µM	1 to 10 µM	< 1 µM	> 10 µM	–	–	–	–	–	–	–	–	–	–	–
Cc1cc2c(cc1CC(=O)c1sccc1S(=O)(=O)Nc1onc(C)c1Cl)COC2 [Example 1, N-(4-chloro-3-methyl-1,2-oxazol-5-yl)-2-[2-(6-methyl-1,3-dihydro-2-benzofuran-5-yl)acetyl]thiophene-3-sulfonamide]	suppressed the activation reaction	> 10 µM	> 10 µM	< 1 µM	> 10 µM	− (the ratio of above 80% was defined as “−”)	− (the ratio of above 80% was defined as “−”)	− (the ratio of above 80% was defined as “−”)	− (the ratio of above 80% was defined as “−”)	− (the ratio of above 80% was defined as “−”)	− (the ratio of above 80% was defined as “−”)	− (the ratio of above 80% was defined as “−”)	+ (the ratio of 80% or less was defined “+”)	− (the ratio of above 80% was defined as “−”)	− (the ratio of above 80% was defined as “−”)	> 10 µM
